Tested on: human oral keratinocytes (HOK-18A)
Assay: IL-8 levels in supernatant of keratinocytes exposed to substrate-treated biofilms
Type: cell-based
Conditions: biofilms treated with substrate 1 M; n = 3
Method: Cultures of immortalized human oral keratinocytes (HOK-18A) are grown. […] The IL-8 levels in the cellular supernatant are determined as well. RNA is converted to cDNA and relative expression of inflammatory mediator genes is determined as described above with respect to the cellular housekeeping gene β-actin.

OC[C@H]1O[C@@H](O[C@H]2[C@H](O)[C@@H](O)[C@@H](O)O[C@@H]2CO)[C@H](O)[C@@H](O)[C@H]1O [D-lactose, α-D-lactose]
Mean ± SD IL-8 levels in HOK-18A supernatant: < LOD^∗
